Patent US10813920B2, “Drug for treating corneal endothelium by promoting cell proliferation or inhibiting cell damage” (THE DOSHISHA, priority 2013, dated 2020)

Test system: p38 MAP kinase signal
Assay: Western blotting of phosphorylated ATF2, downstream molecule of p38 MAP kinase signal
Type: cell-based, human
Details: Western blotting after 20 days from stimulation; 10 μM and 30 μM
Description: *Human corneal endothelial cells (HCEC, where the cells were obtained and culturing method thereof): HCEC was cultured as follows. In short, Descemet's membrane including corneal endothelial cells was peeled off from a corneal for research purchased from the Seattle Eye Bank, and the corneal endothelial cells were mechanically peeled off with a basal membrane. […] Specifically, after digestion at 37° C., HCEC obtained from individual corneas was resuspended in a culture medium and plated on a well of a 12-well plate coated with FNC Coating Mix®. The culture medium was prepared in accordance with a partially-modified disclosed protocol. In short, a basal cultural medium containing OptiMEM-I (Life Technologies), 8% FBS, 5 ng/mL of epithelial growth factor (EGF) (Sigma-Aldrich Co., St. Louis, Mo.), 20 μg/mL of ascorbic acid (Sigma-Aldrich), 200 mg/L calcium chloride (Sigma-Aldrich), 0.08% chondroitin sulfate (Wako Pure Chemical Industries, Osaka) and 50 μg/mL of gentamicin was prepared and an acclimated medium was collected after inactivated 3T3 fibroblasts were cultured. The 3T3 fibroblasts were inactivated as previously described. […] Immunostaining was applied to the cells for observation with a fluorescence microscope. […]

Question: `C[S+]([O-])c1ccc(-c2nc(-c3ccncc3)c(-c3ccc(F)cc3)[nH]2)cc1` (stereo not shown) [SB203580, 4-(4-fluorophenyl)-2-(4-methylsulfinylphenyl)-5-(4-pyridyl)-1H-imidazole] was tested. Which “phosphorylation of ATF2” value did it give?
Answer: suppressed
